# From patent US5733924A, “DC 107 derivatives and treatment methods” (Kyowa Hakko Kogyo Co., Ltd., priority 1995, dated 1998)
# Like-named read-outs stand apart in the source and are kept apart here.
# Key:
# [1] = tested on: Staphylococcus aureus ATCC 6538P; assay: Antibacterial activity, agar dilution method (MIC); assay type: cell-based; settings: for MIC: ATCC6538P
# Description: (§1) The antibacterial activity as determined by the agar dilution method using a medium prepared by dissolving 3 g of Bacto-Tryptone (a product of Difco Laboratories), 3 g of a meat extract, 1 g of an yeast extract, 1 g of glucose and 16 g of agar in one liter of water (pH 7).
# SA: Staphylococcus aureus ATCC 6538P
# [2] = tested on: Bacillus subtilis No. 10707; assay: Antibacterial activity, agar dilution method (MIC); assay type: cell-based
# Description: as §1
# BS: Bacillus subtilis No. 10707
# [3] = tested on: Klebsiella pneumoniae ATCC 10031; assay: Antibacterial activity, agar dilution method (MIC); assay type: cell-based
# Description: as §1
# KP: Klebsiella pneumoniae ATCC 10031
# [4] = tested on: Enterococcus faecium ATCC 10541; assay: Antibacterial activity, agar dilution method (MIC); assay type: cell-based
# Description: as §1
# EF: Enterococcus faecium ATCC 10541
# Escherichia coli ATCC 26 = assay: Antibacterial activity, agar dilution method (MIC); assay type: cell-based
# Description: as §1
# EC: Escherichia coli ATCC 26
# P388 Leukemia = assay: Antitumor activity against P388 leukemia in mice (increased life span); assay type: in vivo, CDF1 mice; settings: Mus musculus, P388, ip, 720 h
# Procedure: Ascites were collected from the abdominal cavity of P388 ascites tumor-bearing cancer mice (DBA/2) on the 7th day after transplantation. A number of P388 cells in the ascites was counted, and a tumor cell floating liquid of 5×10^6 cells/ml was prepared using a physiological saline solution. Then, 0.2 ml of the solution containing 1×10^6 cells was transplanted into the abdominal cavity of CDF1 mice having a body weight of from 20 to 25 g.
# The effect of the test compound was determined in terms of the ratio of average survival days of the group administered with the test compound to average survival days of the control group (non-medicated group) (i.e., an increased life span, ILS%).
# [5] = SA: Staphylococcus aureus ATCC 6538P, agar dilution, pH 7, read-out: MIC (minimum growth inhibitory concentration)
# [6] = BS: Bacillus subtilis No. 10707, pH 7, read-out: MIC (minimum growth inhibitory concentration)
# [7] = ATCC10031, KP: Klebsiella pneumoniae ATCC 10031, agar dilution, pH 7, read-out: MIC (minimum growth inhibitory concentration)
# [8] = ATCC10541, EF: Enterococcus faecium ATCC 10541, pH 7, read-out: MIC (minimum growth inhibitory concentration)
# [9] = ATCC26, EC: Escherichia coli ATCC 26, pH 7, read-out: MIC (minimum growth inhibitory concentration)
# [10] = Staphylococcus aureus, pH 7, read-out: MIC (minimum growth inhibitory concentration)
# [11] = Bacillus subtilis, NO.10707, pH 7, read-out: MIC (minimum growth inhibitory concentration), BS: Bacillus subtilis No. 10707
# [12] = Klebsiella pneumoniae, ATCC10031, pH 7, read-out: MIC (minimum growth inhibitory concentration)
# [13] = Enterococcus faecium, ATCC10541, pH 7, read-out: MIC (minimum growth inhibitory concentration), EF: Enterococcus faecium ATCC 10541
# [14] = Escherichia coli, ATCC26, pH 7, read-out: MIC (minimum growth inhibitory concentration), EC: Escherichia coli ATCC 26
Compound,"MIC [1, 5] [µg/mL]","MIC [2, 6] [µg/mL]","MIC [3, 7] [µg/mL]","MIC [4, 8] [µg/mL]","MIC [1, 10] [µg/mL]","MIC [4, 13] [µg/mL]",also measured
"C/C1=C\C(OC2CCCCO2)C(=O)/C=C/C=C\c2csc(n2)C(C)N2C(=O)CC(C(C)(O)C(=O)SCc3oc(=O)oc3C)(CC1)[S+]2[O-] (single isomer, unassigned) [Compound 64]",,,,,,,"MIC (minimum growth inhibitory concentration) ([1]; SA: Staphylococcus aureus ATCC 6538P, agar dilution, pH 7): 0.65 µg/mL; MIC (minimum growth inhibitory concentration) ([2]; BS: Bacillus subtilis No. 10707, pH 7): 0.16 µg/mL; MIC (minimum growth inhibitory concentration) ([3]; KP: Klebsiella pneumoniae ATCC 10031, agar dilution, pH 7): 5.2 µg/mL; MIC (minimum growth inhibitory concentration) ([4]; EF: Enterococcus faecium ATCC 10541, pH 7): 1.3 µg/mL; MIC (minimum growth inhibitory concentration) (Escherichia coli ATCC 26; EC: Escherichia coli ATCC 26, pH 7): 5.2 µg/mL"
CC(=O)OC1/C=C(\C)CCC2(CC(=O)NC(C)c3nc(cs3)/C=C\C=C\C1=O)[S+]([O-])SC(=O)C2(C)O (stereo not shown) [Compound 1],0.52,0.26,17,0.52,,,
C/C1=C\C(OC(=O)c2ccc(F)cc2)C(=O)/C=C/C=C\c2csc(n2)C(C)NC(=O)CC2(CC1)[S+]([O-])SC(=O)C2(C)O (stereo not shown) [Compound 8],0.081,0.02,1.3,0.081,,,MIC (Escherichia coli ATCC 26; [9]): 1.3 µg/mL
CCOC(=O)OC1/C=C(\C)CCC2(CC(=O)NC(C)c3nc(cs3)/C=C\C=C\C1=O)[S+]([O-])SC(=O)C2(C)O (stereo not shown) [Compound 10],0.26,0.13,4.2,0.26,,,MIC (Escherichia coli ATCC 26; [9]): 4.2 µg/mL
C/C1=C\C(OC(=O)OCC2c3ccccc3-c3ccccc32)C(=O)/C=C/C=C\c2csc(n2)C(C)NC(=O)CC2(CC1)[S+]([O-])SC(=O)C2(C)O (stereo not shown) [Compound 15],0.16,0.041,,0.081,,,"ILS at 16 mg/kg (P388 Leukemia; 16 mg/kg, single i.p. 24 hours after transplantation, CDF1 mice, 30 days observation): 63%"
C/C1=C\C(OC2CCCCO2)C(=O)/C=C/C=C\c2csc(n2)C(C)NC(=O)CC2(CC1)[S+]([O-])SC(=O)C2(C)O (stereo not shown) [Compound 18],,,,,0.16,0.16,"MIC [2, 11]: 0.041 µg/mL; MIC [3, 12]: 2.6 µg/mL; MIC (Escherichia coli ATCC 26; [14]): 1.3 µg/mL"
CC(=O)OC1(C)C(=O)S[S+]([O-])C12CC/C(C)=C/C(O)C(=O)/C=C/C=C\c1csc(n1)C(C)NC(=O)C2 (stereo not shown) [Compound 25],1.3,10,10,2.6,,,MIC (Escherichia coli ATCC 26; [9]): 42 µg/mL
COCOC1/C=C(\C)CCC2(CC(=O)NC(C)c3nc(cs3)/C=C\C=C\C1=O)[S+]([O-])SC(=O)C2(C)O (stereo not shown) [Compound 30],0.13,0.033,1,0.065,,,MIC (Escherichia coli ATCC 26; [9]): 8.3 µg/mL
C/C1=C\C(OC(=O)OCC(C)C)C(=O)/C=C/C=C\c2csc(n2)C(C)N2C(=O)CC(C(C)(O)C(=O)SCc3oc(=O)oc3C)(CC1)[S+]2[O-] (stereo not shown) [Compound 54],,,,,0.13,0.13,ILS at 2 mg/kg (P388 Leukemia; read-out: ILS (increased life span)): 42%; MIC (Escherichia coli ATCC 26; [14]): 0.018 µg/mL
C/C1=C\C(OCOCc2ccccc2)C(=O)/C=C/C=C\c2csc(n2)C(C)N2C(=O)CC(C(C)(O)C(=O)SCc3oc(=O)oc3C)(CC1)[S+]2[O-] (stereo not shown) [Compound 61],,,,,0.65,0.65,"MIC [2, 11]: 0.081 µg/mL; MIC (Escherichia coli ATCC 26; [14]): 2.6 µg/mL"
C/C1=C\C(O)C(=O)/C=C/C=C\c2csc(n2)C(C)N2C(=O)CC(C(C)(O)C(=O)SCOC(=O)C3CCC3)(CC1)[S+]2[O-] (stereo not shown) [Compound 78],,,,,4.7,9.4,"MIC [2, 11]: 0.073 µg/mL; MIC [3, 12]: 2.3 µg/mL"
C/C1=C\C(O)C(=O)/C=C/C=C\c2csc(n2)C(C)N2C(=O)CC(C(C)(O)C(=O)SCOC(=O)C3CCCCC3)(CC1)[S+]2[O-] (stereo not shown) [Compound 80],,,,,2.6,5.2,"MIC [2, 11]: 0.041 µg/mL"
CCCCCCCC(=O)OCSC(=O)C(C)(O)C12CC/C(C)=C/C(O)C(=O)/C=C/C=C\c3csc(n3)C(C)N(C(=O)C1)[S+]2[O-] (stereo not shown) [Compound 84],0.39,0.049,0.098,0.39,,,
COC(C)(C)OC1/C=C(\C)CCC2(C(C)(O)C(=O)SCc3oc(=O)oc3C)CC(=O)N(C(C)c3nc(cs3)/C=C\C=C\C1=O)[S+]2[O-] (stereo not shown) [Compound 121],0.78,0.26,0.39,0.78,,,
